The values that follow come from patent publication US5801180A, “Quinazoline derivatives” (priority 1991, dated 1998).

For this assay, the target named is T1, cGMP-PDE prepared from the swine aeorta (Sus scrofa, UniProt A0A287B475).
T1 construct: The swine aeorta was sliced; from tissue; host or cells: swine aorta, 100000×g supernatant, DEAE-Toyopearl 650S fraction
The assay is described as follows: Enzyme inhibiting action with the use of cGMP-PDE prepared from the swine aorta. The class given is biochemical. To be noted: CaM-independent cGMP-PDE, 1 mM EGTA, 1 μM cGMP substrate, DMSO 4% or below. On the procedure: Enzyme inhibiting action with the use of cGMP-PDE prepared from the swine aeorta
The enzymatic activity of the cGMP-PDE prepared from the swine aeorta was determined according to the method of Thompson et al. ^(1). The enzymatic activity thereof was determined in the presence of 1 mM EGTA by the use of 1 μM cGMP as a substrate. The compound of the present invention was dissolved in DMSO, added to the reaction liquid and examined for the inhibitory activity. The final concentration of DMSO in the reaction liquid was adjusted to 4% or below. (1) Thompson, W. J. and Strada, S. J., Cyclic Nucleotide Phosphodiesterase (PDE), in Methods of Enzymatic Analysis, vol 4, p.127-234, 1984.
The swine aeorta was sliced, followed by the addition of 10 times by volume as much Buffer A (20 mM Tris/HCl, 2 mM Mg acetate, 1 mM Dithiothreitol, 5 mM EDTA, 1400 TIU/liter aprotinin, 10 mg/liter leupeptin, 1 mM benzamidine, 0.2 mM PMSF, pH 7.5). The obtained mixture was homogenized and the homogenate was centrifuged at 100000×g for one hour. The obtained supernatant was supplied a DEAE-Toyopearl 650S (Tosoh, Tokyo, Japan) column. After the column was washed with Buffer B (50 mM Tris/HCl, 0.1 mM EGTA, 2 mM Mg acetate, 1 mM Dithiothreitol, 0.2 mM PMSF, pH 7.5), gradient elution with 0.05 to 0.4M NaCl was conducted. Thus, CaM-independent cGMP-PDE fractions were obtained.
Turning to `CCOC(=O)c1nc(NCc2ccc3c(c2)OCO3)c2cc(Cl)ccc2n1` [Example 107, 2-Ethoxycarbonyl-4-(3,4-methylenedioxybenzyl)amino-6-chloroquinazoline], the IC50 was 4 nM.
`CCOC(=O)/C(C)=C/c1nc(NCc2ccc3c(c2)OCO3)c2cc(Cl)ccc2n1` [Example 112, (E)-2-(2-Ethoxycarbonyl-1-propenyl)-4-(3,4-methylenedioxybenzyl)amino-6-chloroquinazoline] registered an IC50 of 2 nM. Against the preceding molecule, the IC50 is about 2-fold lower.
In the case of `CCOC(=O)/C=C/c1nc(NCc2ccc3c(c2)OCO3)c2cc(Cl)ccc2n1` [Example 114, (E)-2-(2-Ethoxycarbonylvinyl)-4-(3,4-methylenedioxybenzyl)amino-6-chloroquinazoline] it was 3 nM; in that of `CCOC(=O)/C=C/c1nc(NCc2ccc(OC)c(Cl)c2)c2cc(Cl)ccc2n1` [Example 115, (E)-2-(2-Ethoxycarbonylvinyl)-4-(3-chloro-4-methoxybenzyl)amino-6-chloroquinazoline], 2 nM.
Turning to `C/C(=C\c1nc(NCc2ccc3c(c2)OCO3)c2cc(Cl)ccc2n1)C(=O)O` [Example 120, (E)-2-(2-Carboxy-1-propenyl)-4-(3,4-methylenedioxybenzyl)amino-6-chloroquinazoline], inhibition was half-maximal at 1 nM (IC50).
In the case of `O=C(O)c1nc(NCc2ccc3c(c2)OCO3)c2cc(Cl)ccc2n1` [Example 121, 2-Carboxy-4-(3,4-methylenedioxybenzyl)amino-6-chloroquinazoline] it was 650 nM; in that of `O=C(O)/C=C/c1nc(NCc2ccc3c(c2)OCO3)c2cc(Cl)ccc2n1` [Example 122, (E)-2-(2-Carboxyvinyl)-4-(3,4-methylenedioxybenzyl)amino-6-chloroquinazoline], 5 nM; in that of `C/C(=C/c1nc(NCc2ccc3c(c2)OCO3)c2cc(Cl)ccc2n1)C(=O)O` [Example 123, (Z)-2-(2-carboxy-1-propenyl)-4-(3,4-methylenedioxybenzyl)amino-6-chloroquinazoline], 31 nM.
`COc1ccc(CNc2nc(/C=C/C(=O)O)nc3ccc(Cl)cc23)cc1Cl` [Example 124, (E)-2-(2-carboxyvinyl)-4-(3-chloro-4-methoxybenzyl)amino-6-chloroquinazoline]: the IC50 is 8 nM.
In the case of `COc1ccc(CNc2nc(/C=C(\C)C(=O)O)nc3ccc(Cl)cc23)cc1Cl` [Example 125, (E)-2-(2-Carboxy-1-propenyl)-4-(3-chloro-4-methoxybenzyl)amino-6-chloroquinazoline] it was 9 nM; in that of `COc1ccc(CNc2nc(/C=C(/C)C(=O)O)nc3ccc(Cl)cc23)cc1Cl` [Example 126, (Z)-2-(2-Carboxy-1-propenyl)-4-(3-chloro-4-methoxybenzyl)amino-6-chloroquinazoline], 1 nM.
In the case of `COc1cc2c(NCc3ccc4c(c3)OCO4)nc(/C=C(\C)C(=O)O)nc2c(OC)c1OC` [Example 127, (E)-2-(2-Carboxy-1-propenyl)-4-(3,4-methylenedioxybenzyl)amino-6,7,8-trimethoxyquinazoline] it was 110 nM; in that of `COc1cc2c(NCc3ccc4c(c3)OCO4)nc(/C=C(/C)C(=O)O)nc2c(OC)c1OC` [Example 128, (Z)-2-(2-Carboxy-1-propenyl)-4-(3,4-methylenedioxybenzyl)amino-6,7,8-trimethoxyquinazoline], 300 nM; in that of `NC(=O)c1ccc2ncnc(NCc3ccc4c(c3)OCO4)c2c1` [Example 133, 4-(3,4-Methylenedioxybenzyl)amino-6-carbamoylquinazoline], 770 nM.
`NC(=O)c1nc(NCc2ccc3c(c2)OCO3)c2cc(Cl)ccc2n1` [Example 134, 2-Carbamoyl-4-(3,4-methylenedioxybenzyl)amino-6-chloroquinazoline]: 5 nM corresponded to half-maximal inhibition (IC50). This IC50 is about 150-fold lower than that of the molecule before.
For `OCc1ccc2ncnc(NCc3ccc4c(c3)OCO4)c2c1` [Example 136], 930 nM corresponded to half-maximal inhibition (IC50).
Consider `CS(=O)(=O)c1ccc2ncnc(NCc3ccc4c(c3)OCO4)c2c1` [Example 138, 4-(3,4-Methylenedioxybenzyl)amino-6-methysulfonylquinazoline], for which the IC50 was found to be 810 nM.
Molecule `COc1ccc2nc(CO)nc(NCc3ccc4c(c3)OCO4)c2c1` [Example 139, 2-Hydroxymethyl-4-(3,4-methylenedioxybenzyl)amino-6-methoxyquinazoline] came in with an IC50 of 21 nM.
`COc1ccc2nc(O)nc(NCc3ccc4c(c3)OCO4)c2c1` [Example 140, 2-Hydroxy-4-(3,4-methylenedioxybenzyl)amino-6-methoxyquinazoline] returned an IC50 of 680 nM.
`ON=Cc1nc(NCc2ccc3c(c2)OCO3)c2cc(Cl)ccc2n1` [Example 146, 2-Hydroxyiminomethyl-4-(3,4-methylenedioxybenzyl)amino-6-chloroquinazoline] returned a 50% inhibitory concentration (IC50) of 15 nM.
`CCOC(=O)CON=Cc1nc(NCc2ccc3c(c2)OCO3)c2cc(Cl)ccc2n1` [Example 150, 2-Ethoxycarbonylmethoxyiminomethyl-4-(3,4-methylenedioxybenzyl)amino-6-chloroquinazoline] yielded an IC50 of 7.2 nM.
On to `Nc1cc(CNc2ncnc3ccc(Cl)cc23)ccc1Cl` [Example 151, 4-(3-Amino-4-chlorobenzyl)amino-6-chloroquinazoline], for which half-maximal inhibition (IC50) required 81 nM.
In the case of `O=CNc1cc(CNc2ncnc3ccc(Cl)cc23)ccc1Cl` [Example 152, 4-(4-Chloro-3-formamidobenzyl)amino-6-chloroquinazoline] it was 110 nM.
Consider `COCCOc1nc(NCc2ccc3c(c2)OCO3)c2cc(Cl)ccc2n1` [Example 164, 2-(2-Methoxyethoxy)-4-(3,4-methylenedioxybenzyl)amino-6-chloroquinazoline], for which 8 nM corresponded to half-maximal inhibition (IC50).
Molecule `COc1nc(NCc2ccc3c(c2)OCO3)c2cc(Cl)ccc2n1` [Example 165, 2-Methoxy-4-(3,4-methylenediokybenzyl)amino-6-chloroquinazoline] came in with an IC50 of 16 nM.
In the case of `COc1nc(NCc2ccc3c(c2)OCO3)c2cc(C#N)ccc2n1` [Example 166, 2-Methoxy-4-(3,4-methylenedioxybenzyl)amino-6-cyanoquinazoline] it was 26 nM.
Molecule `COc1nc(NCc2ccc3c(c2)OCO3)c2cc(OC)c(OC)c(OC)c2n1` [Example 167, 2,7,8-Tetramethoxy-4-(3,4-methylenedioxybenzyl)aminoquinazoline] came in with an IC50 of 560 nM.
For `OCCOc1nc(NCc2ccc3c(c2)OCO3)c2cc(Cl)ccc2n1` [Example 168], half-maximal inhibition (IC50) was put at 11 nM.
Molecule `N#Cc1ccc2nc(OCCO)nc(NCc3ccc4c(c3)OCO4)c2c1` [Example 169, 2-(2-Hydroxyethoxy)-4-(3,4-methylenedioxybenzyl)amino-6-cyanoquinazoline] displayed an IC50 of 11 nM. This lies in the double-digit nanomolar range.
`COCCOc1nc(NCc2ccc3c(c2)OCO3)c2cc(OC)ccc2n1` [Example 170, 2-(2-Methoxyethoxy)-4-(3,4-methylenedioxybenzyl)amino-6-methoxyquinazoline] returned an IC50 of 29 nM.
In the case of `COCCOc1nc(NCc2ccc3nc[nH]c3c2)c2cc(C#N)ccc2n1` [Example 171, 2-(2-Methoxyethoxy)-4-(benzimidazol-5-yl)methylamino-6-cyanoquinazoline] it was 0.4 nM; in that of `CCCOc1nc(NCc2ccc3c(c2)OCO3)c2cc(OC)c(OC)c(OC)c2n1` [Example 172, 2-Propoxy-4-(3,4-methylenedioxybenzyl)amino-6,7,8-trimethoxyquinazoline], 95 nM; in that of `OCCCCOc1nc(NCc2ccc3c(c2)OCO3)c2cc(Cl)ccc2n1` [Example 174, 2-(4-Hydroxybutoxy)-4-(3,4-methylenedioxybenzyl)amino-6-chloroquinazoline], 4 nM.
In the case of `COCCCCOc1nc(NCc2ccc3c(c2)OCO3)c2cc(Cl)ccc2n1` [Example 175, 2-(4-Methoxybutoxy)-4-(3,4-methylenedioxybenzyl)amino-6-chloroquinazoline] it was 6 nM.
On to `OCCCCCCOc1nc(NCc2ccc3c(c2)OCO3)c2cc(Cl)ccc2n1` [Example 176], for which the IC50 was 3 nM. Compared with the last molecule, the IC50 is about 2-fold lower.
Molecule `Oc1nc(NCc2ccc3c(c2)OCO3)c2cc(Cl)ccc2n1` [Example 177, 2-Hydroxy-4-(3,4-methylenedioxybenzyl)amino-6-chloroquinazoline] came in with an IC50 of 12 nM.
`OCC(O)COc1nc(NCc2ccc3c(c2)OCO3)c2cc(Cl)ccc2n1` (stereo not drawn) [Example 178, 2-(2,3-Dihydroxypropyl)oxy-4-(3,4-methylenedioxybenzyl)amino-6-chloroquinazoline]: it took 11 nM to reach half-maximal inhibition (IC50).
In the case of `N#Cc1ccc2nc(OCCCC(=O)O)nc(NCc3ccc4c(c3)OCO4)c2c1` [Example 179, 2-(3-Carboxypropyl)oxy-4-(3,4-methylenedioxybenzyl)amino-6-cyanoquinazoline] it was 2 nM; in that of `CSc1nc(NCc2ccc3c(c2)OCO3)c2cc(Cl)ccc2n1` [Example 180, 2-Methylthio-4-(3,4-methylenedioxybenzyl)amino-6-chloroquinazoline], 9 nM.

Broadly, the IC50 is the concentration at which inhibition is half-maximal.
